One data set concerns HCT116 cells. Nature of the data set: Synergy viability assay (CellTitre blue, 5 days), HCT116 ARID1A(+/+). The data set is classed as cell-based, human. How it is done: To assess drug synergy, the Chou-Talalay method was employed to provide a mechanism-independent method to quantify the synergism of drug interactions. This method combines elements of the Scatchard, Michaelis-menten, Hill, and Henderson-Hasslebalch equations through the law of mass-action^31,32 to generate a quantifiable assessment of synergy. Molecules were tested both independently and then in 25 different combinations in HCT116 cells for 5 days as described above. To determine a combination index (CI), median-effect equations of the two respective molecules were determined from their respective dose responses. The median-effect equation was used to calculate a median-effect dose, and (Dx)ATRi,BAFi values which correspond for the respective doses of the BAFi and ATRi compounds and correlate with a given percentage of cells affected by the individual treatments. Normalized index values (IATRi, IBAFi), and the combination index are a ratio between the treatment dose, and the Dx for a given fraction of affected cells. Combination indices less than 0.9 are considered synergistic, while values ranging from 0.9 to 1.1 are additive, and CIs above 1.1 are antagonistic.
Viability assays were performed in 384-well plates. Cells were plated at 500 cells/well. Each drug was administered in 5-doses with 4 replicates per plate, and each 5×5 drug combination was administered with 8 replicates per plate, 24 hours after seeding. All error bars represent 4 or 8 technical replicates averaged over 3 independent experiments. Media containing fresh drug was replaced every 48 hours. After 5 days, cellular viability was measured using CellTitre blue, as described by the manufacturer.

A further data set deals with Bmi1 expression. Nature of the data set: Screen for increased expression of Bmi1 (BAF target) in mESCs. The data set is classed as cell-based, mouse. As to conditions: mESC screen. An excerpt: This synthetic lethal interaction has been attributed to the increased dependency of ARID1A-deficient cells on the ATR-mediated G2/M decatenation checkpoint following loss of ARID1A-mediated interactions of the BAF complex with TOP2A^7,27. Utilizing the knowledge that one of the BAF complex's diverse and essential functions involves repression of specific genes in embryonic stem cells^28, we developed a screening strategy to identify compounds that upregulate target genes repressed by the embryonic BAF complex (esBAF) in mESCs including Bmil, Ringl, and Fgf4 (FIG. 1b)^16,29. Given that the loss of ARID1A (a functionally critical, mechanistically elusive, and frequently mutated subunit of the BAF complex) sensitizes cancer cells to inhibition of the ATR kinase, we sought to identify whether our putative esBAF inhibitors (FIG. 1c) might phenocopy the loss of ARID1A in cancer cells and thereby synergize with ATR inhibitors.
We recently completed a large-scale screen to identify small molecules that result in increased expression of Bmi1, a known genetic target of BAF whose expression is increased about 6- to 12-fold upon deletion of the SMARCA4 ATPase subunit of the BAF complex^29. […]

Another data set concerns mESCs. Description: Toxicity in mouse embryonic stem cells (cell cycle arrest). The data set is classed as cell-based. How it is done:
From our initial Bmi1 screen, we chose 8 representative compounds to compare to the lead candidate which were either commercially available, or comprised of the same oxadiazacyclodecone 12-member macrocyclic stereoisomer backbone as Baficillin1. […] To examine a structure-activity-relationship of the compounds, HCT116 cells were then treated with increasing doses of VE-821 (1 uM-30 uM) and increasing doses of the putative inhibitors (1 uM-30 uM), both independently and with all possible combinations followed by quantification of synergy (FIG. 4c-h).
FIG. 4: Structure Activity Relationship of Putative BAF Inhibitors. […]
For hour-by-hour analysis, cells were collected, rinsed with PBS, and vortexed while adding 1mL ice cold 70% ethanol. […] Individual cells were gated based on forward and side scatter, auto fluorescent cells were omitted, and remaining cells were then analyzed for propidium iodide levels. To determine the percent of cells in each phase, DNA content histograms histograms were analyzed using R-package “mixtools” EM algorithm for mixtures of univariate normals. The areas of each mixed normal distribution were calculated to represent the total number of cells in each phase of the cell cycle. […] ESCs were incubated with BrdU for 1 h and the percent of cells in G2/M, stained with 7-AAD and analyzed on a BD FACScan.

Some results are limits rather than exact numbers.

`CO[C@H]1CN(C)C(=O)c2cc(NC(=O)NC(C)C)ccc2OC[C@H](C)N(Cc2ccc(-c3ccccn3)cc2)C[C@@H]1C` [Baficillin1]: the dose reduction index was > 100 fold in the data set with HCT116 cells (combination of VE-821 and Baficillin1, higher concentrations); “over 10 fold” with HCT116 cells (combination of VE-821 and Baficillin1, low concentrations). The “average combination index (CI)” value in the data set with HCT116 cells (with VE-821 (1.25-20 uM each, 25 combinations), 5 days, Chou-Talalay) came out at 0.53±0.05. The “activation of Bmi1 and other BAF targets” value in the data set with Bmi1 expression is “robust activation”. Besides, the “toxicity in mESCs” value in the data set with mESCs is listed as “largely non-toxic”.

(Values after patent US11267809B2, “BAF complex modulating compounds and methods of using the same” (THE BOARD OF TRUSTEES OF THE LELAND STANFORD JUNIOR …, priority 2017, dated 2022).)
